According to patent US20190119298A1, “FUSED 3-PHENYLTETRAMIC ACID DERIVATIVES HAVING HERBICIDAL ACTION” (Bayer CropScience Aktiengesellschaft, priority 2016, published 2019):

What was measured:
Format in all cases: in vivo
Alopecurus myosuroides = assay: Pre-emergence herbicidal effect; conditions: 320 g/ha, scored visually after 3 weeks vs untreated controls, 100% = plants have died
Text: (§1) Seeds of monocotyledonous and dicotyledonous weed plants and crop plants are laid out in sandy loam soil in wood-fibre pots and covered with soil. The compounds of the invention, formulated in the form of wettable powders (WP) or as emulsion concentrates (EC), are then applied to the surface of the covering soil as aqueous suspension or emulsion at a water application rate equating to 600 to 800 L/ha with addition of 0.2% wetting agent. After the treatment, the pots are placed in a greenhouse and kept under good growth conditions for the trial plants. The damage to the test plants is scored visually after a test period of 3 weeks by comparison with untreated controls (herbicidal activity in percent (%): 100% activity=the plants have died, 0% activity=like control plants). ALOMY: Alopecurus myosuroides

Lolium multiflorum = assay: Pre-emergence herbicidal effect; conditions: 320 g/ha, scored visually after 3 weeks vs untreated controls, 100% = plants have died
Text: as §1, with “LOLMU: Lolium multiflorum” for “ALOMY: Alopecurus myosuroides”

Avena fatua [1] = assay: Post-emergence herbicidal effect; conditions: one-leaf stage, 320 g/ha, assessed visually after about 3 weeks, 100% = plants have died
Procedure: (§2) AVEFA: Avena fatua Seeds of monocotyledonous and dicotyledonous weed and crop plants are laid out in sandy loam soil in wood-fibre pots, covered with soil and cultivated in a greenhouse under good growth conditions. 2 to 3 weeks after sowing, the test plants are treated at the one-leaf stage. The compounds of the invention, formulated in the form of wettable powders (WP) or as emulsion concentrates (EC), are then sprayed onto the green parts of the plants as aqueous suspension or emulsion at a water application rate equating to 600 to 800 L/ha with addition of 0.2% wetting agent. After the test plants have been left to stand in the greenhouse under optimal growth conditions for about 3 weeks, the action of the preparations is assessed visually in comparison to untreated controls (herbicidal action in percent (%): 100% activity=the plants have died, 0% activity=like control plants).

Echinochloa crus-galli [2] = assay: Post-emergence herbicidal effect; conditions: one-leaf stage, 320 g/ha, assessed visually after about 3 weeks, 100% = plants have died
Procedure: as §2, with “ECHCG: Echinochloa crus-galli” for “AVEFA: Avena fatua”

Setaria viridis [3] = assay: Post-emergence herbicidal effect; conditions: one-leaf stage, 320 g/ha, assessed visually after about 3 weeks, 100% = plants have died
Procedure: as §2, with “SETVI: Setaria viridis” for “AVEFA: Avena fatua”

Setaria viridis [4] = assay: Pre-emergence herbicidal effect; conditions: 320 g/ha, scored visually after 3 weeks vs untreated controls, 100% = plants have died
Text: as §1, with “SETVI: Setaria viridis” for “ALOMY: Alopecurus myosuroides”

Echinochloa crus-galli [5] = assay: Pre-emergence herbicidal effect; conditions: 320 g/ha, scored visually after 3 weeks vs untreated controls, 100% = plants have died
Text: as §1, with “ECHCG: Echinochloa crus-galli” for “ALOMY: Alopecurus myosuroides”

Avena fatua [6] = assay: Pre-emergence herbicidal effect; conditions: 320 g/ha, scored visually after 3 weeks vs untreated controls, 100% = plants have died
Text: as §1, with “AVEFA: Avena fatua” for “ALOMY: Alopecurus myosuroides”

In the case of `COc1cc(C)cc(Cl)c1C1=C(O)C2CCOCCN2C1=O` (centres unmarked) [Ia-1-8], the “Pre-emergence action ALOMY (herbicidal activity in percent)” value (Alopecurus myosuroides) is reported as 90% and the “Pre-emergence action LOLMU (herbicidal activity in percent)” value (Lolium multiflorum) is reported as 100%.
With `Cc1cc(C)c(C2=C(O)C3=CCOCCN3C2=O)c(C)c1` [Ia-3-1] the “Post-emergence effectiveness AVEFA (herbicidal action in percent)” value (Avena fatua [1]) was 80% and the “Post-emergence effectiveness ECHCG (herbicidal action in percent)” value (Echinochloa crus-galli [2]) was 90%.
In the case of `CCc1cc(C)cc(C)c1C1=C(O)C2=CCOCCN2C1=O` [Ia-3-2], the “Post-emergence effectiveness AVEFA (herbicidal action in percent)” value (Avena fatua [1]) is reported as 100% and the “Post-emergence effectiveness ECHCG (herbicidal action in percent)” value (Echinochloa crus-galli [2]) is reported as 100%.
In the case of `CCc1cc(C)cc(CC)c1C1=C(O)C2=CCOCCN2C1=O` [Ia-3-3], the “Post-emergence effectiveness SETVI (herbicidal action in percent)” value (Setaria viridis [3]) is reported as 100%, the “Pre-emergence action ALOMY (herbicidal activity in percent)” value (Alopecurus myosuroides) is reported as 80% and the “Pre-emergence action LOLMU (herbicidal activity in percent)” value (Lolium multiflorum) is reported as 100%. The “Post-emergence effectiveness ECHCG (herbicidal action in percent)” value (Echinochloa crus-galli [2]) was 100%.
For `CCc1cc(C)cc(CC)c1C1=C(OC(=O)OCCOC)C2CCOCCN2C1=O` (centres unmarked) [Ib-1-5], the “Pre-emergence action SETVI (herbicidal activity in percent)” value (Setaria viridis [4]) was 100%, the “Pre-emergence action ALOMY (herbicidal activity in percent)” value (Alopecurus myosuroides) was 100% and the “Pre-emergence action ECHCG (herbicidal activity in percent)” value (Echinochloa crus-galli [5]) was 100%. The “Pre-emergence action LOLMU (herbicidal activity in percent)” value (Lolium multiflorum) was 100% and the “Pre-emergence action AVEFA (herbicidal activity in percent)” value (Avena fatua [6]) was 100%.
In the case of `COC(=O)OC1=C(c2c(Cl)cc(C)cc2OC)C(=O)N2CCOCCC12` (centres unmarked) [Ib-1-21], the “Pre-emergence action SETVI (herbicidal activity in percent)” value (Setaria viridis [4]) is reported as 100%, the “Pre-emergence action ALOMY (herbicidal activity in percent)” value (Alopecurus myosuroides) is reported as 100% and the “Pre-emergence action ECHCG (herbicidal activity in percent)” value (Echinochloa crus-galli [5]) is reported as 100%. For the same compound, the “Pre-emergence action LOLMU (herbicidal activity in percent)” value (Lolium multiflorum) was 100% and the “Pre-emergence action AVEFA (herbicidal activity in percent)” value (Avena fatua [6]) was 90%.
`CCOC(=O)OC1=C(c2c(Cl)cc(C)cc2OC)C(=O)N2CCOCCC12` (centres unmarked) [Ib-1-22] was tested, and the “Pre-emergence action SETVI (herbicidal activity in percent)” value (Setaria viridis [4]) was 100%, the “Pre-emergence action ALOMY (herbicidal activity in percent)” value (Alopecurus myosuroides) was 90% and the “Pre-emergence action ECHCG (herbicidal activity in percent)” value (Echinochloa crus-galli [5]) was 100%. For the same compound, the “Pre-emergence action LOLMU (herbicidal activity in percent)” value (Lolium multiflorum) was 100% and the “Pre-emergence action AVEFA (herbicidal activity in percent)” value (Avena fatua [6]) was 100%.
`COc1cc(C)cc(Cl)c1C1=C(OC(=O)C(C)(C)C)C2CCOCCN2C1=O` (centres unmarked) [Ib-1-23] was tested, and the “Pre-emergence action SETVI (herbicidal activity in percent)” value (Setaria viridis [4]) was 100%, the “Pre-emergence action ALOMY (herbicidal activity in percent)” value (Alopecurus myosuroides) was 100% and the “Pre-emergence action ECHCG (herbicidal activity in percent)” value (Echinochloa crus-galli [5]) was 100%. The “Pre-emergence action LOLMU (herbicidal activity in percent)” value (Lolium multiflorum) was 100% and the “Pre-emergence action AVEFA (herbicidal activity in percent)” value (Avena fatua [6]) was 90%.
`COc1cc(C)cc(Cl)c1C1=C(OC(C)=O)C2CCOCCN2C1=O` (centres unmarked) [Ib-1-24] was tested, and the “Pre-emergence action SETVI (herbicidal activity in percent)” value (Setaria viridis [4]) was 100%, the “Pre-emergence action ALOMY (herbicidal activity in percent)” value (Alopecurus myosuroides) was 90% and the “Pre-emergence action ECHCG (herbicidal activity in percent)” value (Echinochloa crus-galli [5]) was 100%. For the same compound, the “Pre-emergence action LOLMU (herbicidal activity in percent)” value (Lolium multiflorum) was 100% and the “Pre-emergence action AVEFA (herbicidal activity in percent)” value (Avena fatua [6]) was 90%.
With `CCOC(=O)OC1=C(c2ccc(C)cc2OC)C(=O)N2CCOCCC12` (centres unmarked) [Ib-1-26] the “Pre-emergence action ALOMY (herbicidal activity in percent)” value (Alopecurus myosuroides) was 90% and the “Pre-emergence action LOLMU (herbicidal activity in percent)” value (Lolium multiflorum) was 90%.
With `CC(=O)OC1=C(c2c(C)cc(C)cc2C)C(=O)N2CCCOCC12` (centres unmarked) [Ib-2-1] the “Post-emergence effectiveness SETVI (herbicidal action in percent)” value (Setaria viridis [3]) was 100% and the “Post-emergence effectiveness ECHCG (herbicidal action in percent)” value (Echinochloa crus-galli [2]) was 100%.
With `COC(=O)OC1=C(c2c(C)cc(C)cc2C)C(=O)N2CCCOCC12` (centres unmarked) [Ib-2-2] the “Post-emergence effectiveness SETVI (herbicidal action in percent)” value (Setaria viridis [3]) was 90% and the “Post-emergence effectiveness ECHCG (herbicidal action in percent)” value (Echinochloa crus-galli [2]) was 90%.
`CCOC(=O)OC1=C(c2c(C)cc(C)cc2C)C(=O)N2CCCOCC12` (centres unmarked) [Ib-2-3] was tested, and the “Post-emergence effectiveness SETVI (herbicidal action in percent)” value (Setaria viridis [3]) was 90% and the “Post-emergence effectiveness ECHCG (herbicidal action in percent)” value (Echinochloa crus-galli [2]) was 90%.
`Cc1cc(C)c(C2=C(OC(=O)C(C)(C)C)C3COCCCN3C2=O)c(C)c1` (centres unmarked) [Ib-2-4] was tested, and the “Post-emergence effectiveness SETVI (herbicidal action in percent)” value (Setaria viridis [3]) was 100% and the “Post-emergence effectiveness ECHCG (herbicidal action in percent)” value (Echinochloa crus-galli [2]) was 90%.
`CCc1cc(C)cc(CC)c1C1=C(OC(=O)OC)C2COCCCN2C1=O` (centres unmarked) [Ib-2-5] was tested, and the “Post-emergence effectiveness SETVI (herbicidal action in percent)” value (Setaria viridis [3]) was 100% and the “Post-emergence effectiveness ECHCG (herbicidal action in percent)” value (Echinochloa crus-galli [2]) was 100%.
For `CCOC(=O)OC1=C(c2c(CC)cc(C)cc2CC)C(=O)N2CCCOCC12` (centres unmarked) [Ib-2-6], the “Post-emergence effectiveness SETVI (herbicidal action in percent)” value (Setaria viridis [3]) was 100% and the “Post-emergence effectiveness ECHCG (herbicidal action in percent)” value (Echinochloa crus-galli [2]) was 100%.
With `CCOC(=O)OC1=C(c2c(CC)cc(C)cc2CC)C(=O)N2CCOCC=C12` [Ib-3-2] the “Post-emergence effectiveness SETVI (herbicidal action in percent)” value (Setaria viridis [3]) was 90% and the “Post-emergence effectiveness ECHCG (herbicidal action in percent)” value (Echinochloa crus-galli [2]) was 80%.
`CCc1cc(C)cc(CC)c1C1=C(OC(=O)C(C)(C)C)C2=CCOCCN2C1=O` [Ib-3-3] was tested, and the “Post-emergence effectiveness SETVI (herbicidal action in percent)” value (Setaria viridis [3]) was 100% and the “Post-emergence effectiveness ECHCG (herbicidal action in percent)” value (Echinochloa crus-galli [2]) was 90%.
With `CCc1cc(C)cc(C)c1C1=C(OC(=O)OC)C2=CCOCCN2C1=O` [Ib-3-5] the “Post-emergence effectiveness SETVI (herbicidal action in percent)” value (Setaria viridis [3]) was 90%, the “Pre-emergence action ALOMY (herbicidal activity in percent)” value (Alopecurus myosuroides) was 100% and the “Pre-emergence action LOLMU (herbicidal activity in percent)” value (Lolium multiflorum) was 80%. For the same compound, the “Post-emergence effectiveness ECHCG (herbicidal action in percent)” value (Echinochloa crus-galli [2]) was 90%.
In the case of `CCOC(=O)OC1=C(c2c(C)cc(C)cc2CC)C(=O)N2CCOCC=C12` [Ib-3-6], the “Post-emergence effectiveness SETVI (herbicidal action in percent)” value (Setaria viridis [3]) is reported as 90% and the “Post-emergence effectiveness ECHCG (herbicidal action in percent)” value (Echinochloa crus-galli [2]) is reported as 90%.
For `CCc1cc(C)cc(C)c1C1=C(OC(=O)C(C)(C)C)C2=CCOCCN2C1=O` [Ib-3-7], the “Post-emergence effectiveness SETVI (herbicidal action in percent)” value (Setaria viridis [3]) was 100% and the “Post-emergence effectiveness ECHCG (herbicidal action in percent)” value (Echinochloa crus-galli [2]) was 90%.
`CCOC(=O)OC1=C(c2c(CC)cc(Cl)cc2OC)C(=O)N2CCOCC=C12` [Ib-3-9] was tested, and the “Post-emergence effectiveness SETVI (herbicidal action in percent)” value (Setaria viridis [3]) was 100% and the “Post-emergence effectiveness ECHCG (herbicidal action in percent)” value (Echinochloa crus-galli [2]) was 90%.
`CCOC(=O)OC1=C(c2c(C)cc(Br)cc2C)C(=O)N2CCOCC=C12` [Ib-3-11] was tested, and the “Post-emergence effectiveness SETVI (herbicidal action in percent)” value (Setaria viridis [3]) was 90% and the “Post-emergence effectiveness ECHCG (herbicidal action in percent)” value (Echinochloa crus-galli [2]) was 80%.
With `COc1cc(C)cc(Cl)c1C1=C(OC(C)=O)C2=CCOCCN2C1=O` [Ib-3-13] the “Pre-emergence action SETVI (herbicidal activity in percent)” value (Setaria viridis [4]) was 100%, the “Pre-emergence action ALOMY (herbicidal activity in percent)” value (Alopecurus myosuroides) was 100% and the “Pre-emergence action ECHCG (herbicidal activity in percent)” value (Echinochloa crus-galli [5]) was 100%. The “Pre-emergence action LOLMU (herbicidal activity in percent)” value (Lolium multiflorum) was 100% and the “Pre-emergence action AVEFA (herbicidal activity in percent)” value (Avena fatua [6]) was 90%.
With `COc1cc(C)cc(Cl)c1C1=C(OC(=O)C(C)(C)C)C2=CCOCCN2C1=O` [Ib-3-16] the “Pre-emergence action SETVI (herbicidal activity in percent)” value (Setaria viridis [4]) was 90%, the “Pre-emergence action ALOMY (herbicidal activity in percent)” value (Alopecurus myosuroides) was 90% and the “Pre-emergence action ECHCG (herbicidal activity in percent)” value (Echinochloa crus-galli [5]) was 80%. For the same compound, the “Pre-emergence action LOLMU (herbicidal activity in percent)” value (Lolium multiflorum) was 90%.
